Results: US20060211887A1, “Phosphate salts of 6-dimethylaminomethyl-1-(3-methoxyphenyl)-1,3-dihydroxy-cyclohexane compounds” (priority 2005, published 2006)
Entries after “also recorded” stand apart in the source; their conditions may differ.

Columns and labels:
[1] = Storage at defined relative atmospheric humidity (approx. 75% or 95%, then approx. 4%) with thermogravimetric analysis, weighing and X-ray powder diffractometry; format: physicochemical; details: for % pt during / % pt after / % pt (middle): vs before storage; for Form during / Form after / Form middle: X-ray powder diffractometry; for Laboratory after: storage step approx. 4 (±5) % r.h. approx. 20 h; for Laboratory during %: storage step approx. 75 (±5) % r.h. approx. 7 days; for Laboratory during: storage step approx. 95 (±5) % r.h. approx. 7 days
Text: Storage of the hydrochloride salts, which are not according to the invention (identified H1 to H3 in the following examples of compounds; for the synthesis see the subsequent experimental part), at room temperature over saturated sodium chloride solution results in a relative atmospheric humidity of approx. 75% (±5%). Storage of the samples at room temperature over saturated potassium sulfate solution results in a relative atmospheric humidity of approx. 95% (±5%).
Storage of the samples at room temperature over drying beads (blau+, Engelhardt, Nienburg) results in a relative atmospheric humidity of approx. 4% (±5%).
The samples were stored at approx. 75% relative atmospheric humidity for approx. 8.5 days. The samples were then stored at a relative atmospheric humidity of approx. 4% for a further approx. 6 h.
They were analyzed for their loss in weight by means of thermogravimetric analyses (amount of sample approx. 5-20 mg, heating rate approx. 10 K/min, heating range from approx. 25° C. to approx. 240° C.).
The approximate difference in the moisture content (in percentage points; % pt) from after the storage to before the particular storage step is stated.
In addition, the percentage change in the total weight of the sample occurring in the respective storage step was determined by weighing (“laboratory”).
The crystalline form was determined by means of X-ray powder diffractometry.
The samples were stored at approx. 95% relative atmospheric humidity for approx. 8.5 days. The samples were then stored at a relative atmospheric humidity of approx. 4% for a further approx. 6 h.
The approximate difference in the moisture content (in percentage points; % pt) from after the storage to before the storage is stated.
The samples were stored at approx. 75% relative atmospheric humidity for approx. 7 days. The samples were then stored at a relative atmospheric humidity of approx. 4% for a further approx. 2.5 days.
The approximate difference in the moisture content (in percentage points; % pt) from after the storage step to before the storage is stated.
The samples were stored at approx. 95% relative atmospheric humidity for approx. 7 days. The samples were then stored at a relative atmospheric humidity of approx. 4% for a further approx. 7 days.
Storage of the phosphate salts I-P according to the invention, called samples in the following, at room temperature over saturated sodium chloride solution results in a relative atmospheric humidity of approx. 75 (±5) % . Storage of the samples at room temperature over saturated potassium sulfate solution results in a relative atmospheric humidity of approx. 95 (±5) %.
Storage of the samples at room temperature over drying beads (blau+, Engelhardt, Nienburg) results in a relative atmospheric humidity of approx. 4 (±5) %.
The samples were stored at approx. 75 (±5) % relative atmospheric humidity for approx. 8.5 days. The samples were then stored at a relative atmospheric humidity of approx. 4 (±5) % for a further approx. 6 h.
The samples were stored at approx. 95 (±5) % relative atmospheric humidity for approx. 8.5 days. The samples were then stored at a relative atmospheric humidity of approx. 4 (±5) % for a further approx. 6 h.
The samples were stored at approx. 75 (±5) % relative atmospheric humidity for approx. 7 days. The samples were then stored at a relative atmospheric humidity of approx. 4 (±5) % for a further approx. 20 h.
The samples were stored at approx. 95 (±5) % relative atmospheric humidity for approx. 7 days. The samples were then stored at a relative atmospheric humidity of approx. 4 (±5) % for a further approx. 20 h.
Sample P3 was kept in the laboratory for approx. 55 minutes under ambient conditions before the second storage step.
The interpretation of the specified data is explained again in more detail by the example of the data for P1 given in the preceding Table 8:
Storage of 1: • first storage step: 95% atmospheric humidity • second storage step: 4% atmospheric humidity […]

[2] = Drying of form B of the phosphate salt in vacuo, physical form checked by X-ray powder diffractometry, thermal analysis and 1H NMR; format: physicochemical
Experimental: The form B was dried for 13 hours at 40° C. in vacuo.
The form B was dried for 24 hours at 40° C. in vacuo.
Form B was dried at 68° C. in a drying cabinet in vacuo for 3 days.

[3] = after approx. 75 (±5) % r.h. approx. 7 days
[4] = after approx. 95 (±5) % r.h. approx. 7 days
[5] = approx. 75 (±5) % r.h. approx. 7 days, then approx. 4 (±5) % approx. 20 h
[6] = approx. 75 (±5) % r.h. approx. 8.5 days, then approx. 4 (±5) % approx. 6 h
[7] = approx. 95 (±5) % r.h. approx. 7 days, then approx. 4 (±5) % approx. 20 h
[8] = approx. 95 (±5) % r.h. approx. 8.5 days, then approx. 4 (±5) % approx. 6 h
[9] = after approx. 75% r.h. approx. 7 days
[10] = after approx. 95% r.h. approx. 7 days
[11] = approx. 75% r.h. approx. 7 days, then approx. 4% approx. 2.5 days
[12] = approx. 95% r.h. approx. 7 days, then approx. 4% approx. 7 days
[13] = storage step approx. 4% r.h. approx. 2.5 days, after 75% r.h. 7 days
[14] = storage step approx. 4% r.h. approx. 7 days, after 95% r.h. 7 days
[15] = storage step approx. 75% r.h. approx. 7 days
[16] = storage step approx. 95% r.h. approx. 7 days
[17] = approx. 75% r.h. approx. 8.5 days, then approx. 4% approx. 6 h
[18] = approx. 75% relative atmospheric humidity approx. 8.5 days, then approx. 4% approx. 6 h
[19] = approx. 95% r.h. approx. 8.5 days, then approx. 4% approx. 6 h

COc1cccc([C@@]2(O)C[C@H](O)CC[C@@H]2CN(C)C)c1 (racemic) [Sample P3, (1RS,3RS,6RS)-6-dimethylaminomethyl-1-(3-methoxyphenyl)-cyclohexane-1,3-diol]
% pt during [1, 3]: −0.25 % pt
Form during [1, 3]: form A
% pt during [1, 4]: +0.21 % pt
Form during [1, 4]: form A
% pt after [1, 5]: −0.33 % pt
Form after [1, 5]: form A
% pt [1, 6]: −0.24 % pt
Laboratory (percentage change in total weight by weighing) [1, 6]: −0.47%
Form after [1, 6]: form A
% pt after [1, 7]: +0.27 % pt
Form after [1, 7]: form A
% pt [1, 8]: −0.25 % pt
Laboratory (percentage change in total weight by weighing) [1, 8]: −0.39%
Form after [1, 8]: form A
Laboratory after ([1]; after 75% r.h. 7 days): −0.75%
Laboratory after ([1]; after 95% r.h. 7 days): −0.04%
Laboratory during % [1]: +0.23%
Laboratory during [1]: 5.33%

COc1cccc([C@@]2(O)C[C@H](O)CC[C@@H]2CN(C)C)c1 (racemic) [Sample P1, (1RS,3RS,6RS)-6-dimethylaminomethyl-1-(3-methoxyphenyl)-cyclohexane-1,3-diol]
% pt during [1, 3]: −0.21 % pt
Form during [1, 3]: form A
% pt during [1, 4]: −0.19 % pt
Form during [1, 4]: form A
Weight loss TG (afterwards) ([1]; after second storage step at ca. 4% atmospheric humidity): −4.38%
Weight loss TG (intermediate) ([1]; after storage at 95% atmospheric humidity approx. 7 days): −4.55%
% pt after [1, 5]: −0.04 % pt
Form after [1, 5]: form A
% pt [1, 6]: −0.05 % pt
Laboratory (percentage change in total weight by weighing) [1, 6]: −0.01%
Form after [1, 6]: form A
% pt after [1, 7]: −0.02 % pt
Form after [1, 7]: form A
% pt [1, 8]: −0.22 % pt
Laboratory (percentage change in total weight by weighing) [1, 8]: +0.12%
Form after [1, 8]: form A
Weight loss TG (beforehand) ([1]; before storage, thermogravimetry approx. 25-240° C.): −4.36%
Laboratory after ([1]; after 75% r.h. 7 days): +0.07%
Laboratory after ([1]; after 95% r.h. 7 days): −0.04%
Laboratory during % [1]: −0.08%

COc1cccc(C2(O)CC(O)CCC2CN(C)C)c1 (centres unmarked) [Sample H3, 6-dimethylaminomethyl-1-(3-methoxyphenyl)-1,3-dihydroxy-cyclohexane]
% pt (middle) [1, 9]: −4.75 % pt
Form middle [1, 9]: form B
% pt (middle) [1, 10]: −2.37 % pt
Form middle [1, 10]: form B
% pt after [1, 11]: 0.46 % pt
Form after [1, 11]: form B
% pt after [1, 12]: −0.49 % pt
Form after [1, 12]: form B
Laboratory/% (after) [1, 13]: +3.68%
Laboratory/% (after) [1, 14]: −9.19%
Laboratory/% (middle) [1, 15]: +0.02%
Laboratory/% (middle) [1, 16]: +4.34%

COc1cccc([C@@]2(O)C[C@H](O)CC[C@@H]2CN(C)C)c1 (racemic) [form B, (1RS,3RS,6RS)-6-dimethylaminomethyl-1-(3-methoxyphenyl)-cyclohexane-1,3-diol]
Change in the physical form on drying ([2]; 68° C. in a drying cabinet in vacuo for 3 days): converted into amorphous material
Change in the physical form on drying ([2]; 13 hours at 40° C. in vacuo): no changes in the physical form were observed
Change in the physical form on drying ([2]; 24 hours at 40° C. in vacuo): no changes in the physical form were observed

COc1cccc([C@@]2(O)C[C@H](O)CC[C@@H]2CN(C)C)c1 (racemic) [Sample P2, (1RS,3RS,6RS)-6-dimethylaminomethyl-1-(3-methoxyphenyl)-cyclohexane-1,3-diol]
% pt during [1, 3]: −0.42 % pt
Form during [1, 3]: form A
% pt during [1, 4]: −0.24 % pt
Form during [1, 4]: form A
% pt after [1, 5]: −0.44 % pt
Form after [1, 5]: form A
% pt [1, 6]: −0.17 % pt
Laboratory (percentage change in total weight by weighing) [1, 6]: +0.06%
Form after [1, 6]: form A
% pt after [1, 7]: −0.21 % pt
Form after [1, 7]: form A
% pt [1, 8]: −0.25 % pt
Laboratory (percentage change in total weight by weighing) [1, 8]: +0.02%
Form after [1, 8]: form A
Laboratory after ([1]; after 75% r.h. 7 days): +0.08%
Laboratory after ([1]; after 95% r.h. 7 days): −0.60%
Laboratory during % [1]: +0.02%
Laboratory during [1]: +0.52%

COc1cccc(C2(O)CC(O)CCC2CN(C)C)c1 (centres unmarked) [Sample H2, 6-dimethylaminomethyl-1-(3-methoxyphenyl)-1,3-dihydroxy-cyclohexane]
% pt (difference in the moisture content, thermogravimetry, after vs before storage) [1, 17]: −2.85 % pt
Laboratory/% (percentage change in total weight by weighing) [1, 17]: +2.61%
Form after [1, 18]: form B, further
% pt (difference in the moisture content, thermogravimetry) [1, 19]: −4.95 % pt
Laboratory/% (percentage change in total weight by weighing) [1, 19]: +4.88%
Form after [1, 19]: form B, further

COc1cccc(C2(O)CC(O)CCC2CN(C)C)c1 (centres unmarked) [Sample H1, 6-dimethylaminomethyl-1-(3-methoxyphenyl)-1,3-dihydroxy-cyclohexane]
% pt (middle) [1, 9]: −2.73 % pt
Form middle [1, 9]: form A,; also recorded: form B,; also recorded: form C,; also recorded: form D
% pt (middle) [1, 10]: −4.88 % pt
Form middle [1, 10]: form B
% pt after [1, 11]: 0.53 % pt
Form after [1, 11]: form B,; also recorded: form A
% pt (difference in the moisture content, thermogravimetry, after vs before storage) [1, 17]: −1.22 % pt
Laboratory/% (percentage change in total weight by weighing) [1, 17]: +1.14%
Form after [1, 18]: form B, further
% pt after [1, 12]: −3.84 % pt
Form after [1, 12]: form B
% pt (difference in the moisture content, thermogravimetry) [1, 19]: −4.89 % pt
Laboratory/% (percentage change in total weight by weighing) [1, 19]: +4.99%
Form after [1, 19]: form B, further
Laboratory/% (after) [1, 13]: −1.24%
Laboratory/% (after) [1, 14]: −22.76%
Laboratory/% (middle) [1, 15]: 2.89%
Laboratory/% (middle) [1, 16]: +13.72%
